Measured values from paper PMC8067314, “Uptake of Vitamins D2, D3, D4, D5, D6, and D7 Solubilized in Mixed Micelles by Human Intestinal Cells, Caco-2, an Enhancing Effect of Lysophosphatidylcholine on the Cellular Uptake, and Estimation of Vitamins D’ Biological Activities” (Nutrients, 2021).

Tests used:
rats [1] = system: rats; parameters: method as in PMID 9017001; conditions: cited from earlier work
dispersed Caco-2 cells = assay: Uptake of vitamin D from mixed micelles by dispersed Caco-2 cells; type: in vitro ADME, human; conditions: dispersed Caco-2 cells, 2 h
Text: (§1) Since 2001, we have reported that lysophospholipids enhance the uptake of micellar carotenoids in Caco-2 cells. […] In the present study, using the same method, we examined whether the mechanism for the enhancing effect of lysophosphatidylcholine could be adapted to vitamin D, as well. To evaluate the impact of the degree of cell-cell adhesion/cell-matrix adhesion on vitamin D uptake by cells, we prepared in two different ways: i) dispersed Caco-2 cells without cell-cell adhesion/cell-matrix adhesion and ii) Caco-2 cells with insufficient cell-cell adhesion.
(i): The dispersed cells were prepared by trypsin treatment. After collecting the cells in the culture medium, the number of cells was counted and diluted with the medium. The cells were washed two times with FBS-free DMEM and then seeded in culture plate of 24-well for suspension cultures (SC plate; Greiner Bio-One, Frickenhausen, Germany) at a density of 15 × 10^4 cells per well containing the FBS-free DMEM (0.5 mL).
(§2) Subsequent operations are common to the two models of cells. The medium consisting of mixed micellar vitamin D (0.5 mL) was added to adhered cells or dispersed cells in individual wells containing FBS-free DMEM (0.5 mL), resulting in a total medium volume of 1.0 mL/well, and the final start concentrations of mixed micellar components were one-half the initial concentration. The cells were incubated in the same conditions as described above, i.e., in a CO2 incubator at 37 °C for 2 h, and then the cells were washed with 2 mM taurocholate/PBS, followed by two times with PBS. The vitamin D uptake and residual mixed micellar vitamin D were evaluated as the previous subsection, but the filtrate of residual mixed micellar vitamin D was diluted with a 2x-volume of H2O. The cellular protein content was also determined as above.

[2] = system: Caco-2 cells with insufficient cell-cell adhesion; assay: Uptake of vitamin D2 by adherent Caco-2 cells with insufficient cell-cell adhesion; type: in vitro ADME, human; conditions: 2-h incubation
Text: as §1
(ii): The cells that had insufficient cell-cell adhesion were prepared by reducing the culture period from 20–22 d for full differentiation to <7 d after the seeding described above.
as §2

rats [3] = conditions: line test, vitamins D provided as a crystal; cited from earlier work
chicks = conditions: cited from earlier work
rats [4] = conditions: cited from earlier work

Compound: C=C1/C(=C\C=C2/CCC[C@]3(C)[C@@H]([C@H](C)CC[C@@H](CC)C(C)C)CC[C@@H]23)C[C@@H](O)C[C@@H]1O [1-OH-vitamin D5]
- Activity for increasing the blood concentration of calcium relative to 1,25-di(OH)-vitamin D3 (rats [1]): approximately one-sixth

Compound: C=C1CC[C@H](O)C/C1=C/C=C1\CCC[C@]2(C)[C@@H]([C@H](C)/C=C/[C@H](C)C(C)C)CC[C@@H]12 [Vitamin D2]
- Vitamin-D2 uptake from lysoPC mixed micelles relative to that from NoPC mixed micelles (dispersed Caco-2 cells): approximately one-sixth
- Vitamin D2 uptake, NoPC vs lysoPC mixed micelles ([2]; Caco-2 cells cultured for 3 d): significantly higher by cells cultured for 3 d from NoPC mixed micelles
- Vitamin D2 uptake, NoPC vs lysoPC mixed micelles ([2]; Caco-2 cells cultured for 5 d): no difference in the uptake amounts between NoPC mixed micelles and lysoPC mixed micelles
- Vitamin D2 uptake, NoPC vs lysoPC mixed micelles ([2]; Caco-2 cells cultured for 7 d): uptake from lysoPC mixed micelles were significantly higher than those from NoPC mixed micelles
- Anti-rickets activity, comparison of vitamins D (rats [3]): highest activities and were similar
- Intestinal absorption compared with vitamin D3 or D4 (chicks): less absorbed than vitamin D3
- Intestinal absorption compared with vitamin D3 (rats [4]): slightly more easily absorbed than vitamin D3
